Source: US9730944B2, “Antiviral activity of novel bicyclic heterocycles” (priority 2010, dated 2017)

Legend:
[1] = Cytotoxicity in HCV-1a replicon cells, Promega CellTiter-Glo cell viability assay
[2] = tested on: genotype 1a H-77 replicon; test: HCV-1a replicon potency in RLuc-1 cells, bioluminescence; format: cell-based; conditions: for HCV-1a Replicon Selectivity Index: CC50/EC50, genotype 1a replicon; for EC50: Hepatitis C virus, 72 h, read-out: HCV-1a Replicon EC50 (μM)

| SMILES | CC50 at 72 h [1] | HCV-1a Replicon Selectivity Index [2] | EC50 [2] |
| --- | --- | --- | --- |
| Cc1cccc(NC(=O)N2CCCN(c3nc(N)nc4[nH]c(-c5ccc(F)cc5)nc34)CC2)c1 [Example 422, 4-(2-amino-8-(4-fluorophenyl)-9H-purin-6-yl)-N-m-tolyl-1,4-diazepane-1-carboxamide] | 35.1 µM | 1.3 | 26.1 µM |
| Nc1nc(N2CCN(C(=O)COc3ccc(Cl)cc3)CC2)c2nc(-c3ccc(OC(F)(F)F)cc3)[nH]c2n1 [Example 395, 1-(4-(2-amino-8-(4-(trifluoromethoxy)phenyl)-9H-purin-6-yl)piperazin-1-yl)-2-(4-chlorophenoxy)ethanone] | 10.7 µM | 1.1 | 9.9 µM |
| CN(C(=O)CN1CCN(c2nc(N)nc3[nH]c(-c4ccc(F)cc4)nc23)CC1)c1ccccc1 [Example 413, 2-(4-(2-amino-8-(4-fluorophenyl)-9H-purin-6-yl)piperazin-1-yl)-N-methyl-N-phenylacetamide] | 20.3 µM | 0.5 | > 44.4 µM |
| Nc1nc(N2CCN(c3ccc(Cl)cc3)CC2)c2nc(-c3ccc(F)cc3)[nH]c2n1 [Example 414, 6-(4-(4-chlorophenyl)piperazin-1-yl)-8-(4-fluorophenyl)-9H-purin-2-amine] | 8.7 µM | 1.2 | 7.3 µM |
| Nc1nc(N2CCN(C(=O)COc3ccc(Cl)cc3)CC2)c2nc(-c3cccc(Cl)c3)[nH]c2n1 [Example 393, 1-(4-(2-amino-8-(3-chlorophenyl)-9H-purin-6-yl)piperazin-1-yl)-2-(4-chlorophenoxy)ethanone] | 8.1 µM | 2.5 | 3.2 µM |
| CC(=O)N1CCN(c2nc(N)nc3[nH]c(-c4ccc(F)cc4)nc23)CC1 [Example 408, 1-(4-(2-amino-8-(4-fluorophenyl)-9H-purin-6-yl)piperazin-1-yl)ethanone] | > 44.4 µM |  | > 44.4 µM |
| Nc1nc(N2CCN(C(=O)COc3ccc(Cl)cc3)CC2)c2nc(-c3ccc(Cl)cc3)[nH]c2n1 [Example 392, 1-(4-(2-amino-8-(4-chlorophenyl)-9H-purin-6-yl)piperazin-1-yl)-2-(4-chlorophenoxy)ethanone] | 12.2 µM | 4.6 | 2.7 µM |
| Nc1nc(N2CC[C@@H](NC(=O)COc3ccc(Cl)cc3)C2)c2nc(CCc3ccc(F)cc3)sc2n1 [Example 143, 5-amino-2-[2-(4-fluorophenyl)ethyl]-7-(3-(R)-[2-(4-chlorophenoxy)-acetylamino]pyrrolidin-1-yl)-thiazolo[5,4-d]pyrimidine] | 30.4 µM | 0.7 | > 44.4 µM |
| CCC(c1ccc(F)cc1)c1nc2c(N3CCN(C(=O)COc4ccc(Cl)cc4)CC3)nc(N)nc2s1 (centres unmarked) [Example 150, 5-amino-2-[1-(4-fluorophenyl)propyl]-7-(4-[2-(4-chlorophenoxy)acetyl]piperazin-1-yl)thiazolo[5,4-d]pyrimidine] | 25.9 µM | 2.0 | 13.1 µM |
| Nc1nc(N2CCN(C(=O)c3ccc(Cl)cc3)CC2)c2nc(CCc3cccs3)sc2n1 [Example 156, 5-amino-2-(2-thiophen-2-ylethyl)-7-(4-(4-chloro-benzoyl)piperazin-1-yl)thiazolo[5,4-d]pyrimidine] | 30.7 µM | 1.5 | 20.7 µM |
| CSc1nc2c(N3CCN(C(=O)COc4ccc(Cl)cc4)CC3)nc(N)nc2[nH]1 [Example 424, 1-(4-(2-amino-8-(methylthio)-9H-purin-6-yl)piperazin-1-yl)-2-(4-chlorophenoxy)ethanone] | > 44.4 µM | >1.3 | 34.8 µM |
| CCCSc1nc2c(N3CCN(C(=O)COc4ccc(Cl)cc4)CC3)nc(N)nc2[nH]1 [Example 425, 1-(4-(2-amino-8-(propylthio)-9H-purin-6-yl)piperazin-1-yl)-2-(4-chlorophenoxy)ethanone] | 23.6 µM | 19.7 | 1.2 µM |
